Assay results published in US5776949A, “2-(1H) quinolinone compounds” (Adir et Compagnie, priority 1997, dated 1998).

Columns and labels:
[1] = tested on: AMPA receptor; test: AMPA-induced currents in Xenopus oocytes injected with rat cerebral cortex poly(A+) mRNA (2-electrode voltage-clamp); assay type: cell-based
Protocol: (§1) Their efficacy may be studied by means of electrophysiological techniques in vitro and especially by means of the measurement of the currents induced by the glutamatergic agonists in the oocyte of Xenopus.
(§2) Xenopus oocytes are injected with 50 ng of poly(A^+) mRNA isolated from rat cerebral cortex and incubated for 2 to 3 days at 18° C. so as to allow the protein expression thereof. The inflow of currents induced by the EAAs are measured in a medium of composition: NaCl (82.5 mM), KCl (2.5 mM), CaCl2 (1 mM), MgCl2 (1 mM), NaH2 PO4 (1 mM), HEPES (5 mM), pH 7.4 by the 2 electrode Voltage-clamp method (voltage=-60 mV). To measure the currents induced by NMDA and glycine, MgCl2 is absent from the medium and CaCl2 is supplied at the concentration of 2 mM. The EAA agonists inducing the currents are used at the following concentrations: kainate: 100 μM; AMPA: 30 μM; glycine/NMDA: 3/30 μM. The product studied is applied 30 seconds before and during the application of the agonist.

[2] = Solubility in water
[3] = tested on: cerebral infarct; test: Antineurodegenerative activity in vivo: occlusion of the middle cerebral artery (MCA), infarct volume; details: rats; for reduction of cortical edematous infarct volume: 20 mg/kg i.v., 1 hour after arterial occlusion
Protocol: The occlusion of the sylvian artery (or middle cerebral artery MCA) is at the origin of about 70% of cases of cerebral vascular accidents in man. This type of cerebral ischemia may be reproduced very precisely in rats by intracerebral ligature of the MCA. This definitive occlusion causes, within 24 hours, the formation of a striatocortical infarct of identical location to that observed in a clinical situation. The infarct is perfectly delimited and is therefore histologically measurable. This infarct is of the edematous type. It changes within the following 3 days into a definitive necrotic infarct. The excessive liberation of glutamate is a major pathological feature for the genesis of the cerebral infarct. An antiischemic neuroprotective compound should prevent the formation of this infarct at 24 hours and on its necrotic maturation at 96 hours.
The compounds of the invention are compounds with a potent antiischemic effect, even during post-ischemic delayed treatment (treatment by the i.v. route 1 hour after the arterial occlusion). […] This is a major activity since it also prevents necrotic maturation. Thus, when a 3-day follow-up treatment (10 mg/kg i.p. twice per day) is carried out after the initial i.v. injection (20 mg/kg), the compound of Example 1decreases the volume of the terminal infarct by 44%.

[4] = tested on: NMDA receptor; test: glycine/NMDA-induced currents in Xenopus oocytes injected with rat cerebral cortex poly(A+) mRNA (2-electrode voltage-clamp); assay type: cell-based; details: glycine/NMDA 3/30 μM; MgCl2 absent, CaCl2 2 mM; product applied 30 seconds before and during agonist
Protocol: as §1, §2

[5] = tested on: glutamate-dependent convulsive attacks; test: Anti-convulsant activity in vivo: convulsions triggered by sound stimulus in DBA2 mice
From the text: Likewise, in the DBA2 mice, glutamate-dependent convulsive attacks may be triggered by subjecting the animals to a sound stimulus of high frequency (14 kHz, 103 dB). The anticonvulsion effects are objectivated by the capacity to prevent convulsions arrival and the death which follows.

| Structure (SMILES) | IC50 ([1]; AMPA 30 μM, voltage -60 mV, product applied 30 seconds before and during agonist) [µM] | selectivity for the AMPA receptor ([1]; AMPA versus NMDA, Xenopus oocytes) [times] | solubility in water (in words) [2] | reduction of cortical edematous infarct volume [3] [%] | IC50 [4] [µM] | inhibition of mortality ([5]; 50 mg/kg i.p., 30 minutes before sound stimulus) | ED50 ([5]; Mus musculus, ip, 0.5 h, i.p. 30 minutes before sound stimulus (14 kHz, 103 dB), read-out: ED50 (anticonvulsant protection)) [mg/kg] | anticonvulsant effects (in words) ([5]; i.p. 30 minutes before sound stimulus) | decrease of the volume of the terminal infarct ([3]; 20 mg/kg i.v. then 3-day follow-up 10 mg/kg i.p. twice per day) [%] |
| --- | --- | --- | --- | --- | --- | --- | --- | --- | --- |
| O=c1[nH]c2cc([N+](=O)[O-])c([N+](=O)[O-])cc2cc1S(=O)(=O)O [Example 2, 6,7-Dinitro-2-(1H)-quinolinone-3-sulfonic acid] | 0.2 | 40 | soluble in water | 27 | 8 | – | – | – | – |
| O=c1[nH]c2cc([N+](=O)[O-])ccc2cc1S(=O)(=O)O [Example 1, 7-Nitro-2-(1H)-quinolinone-3-sulfonic acid] | – | – | – | 45 | – | more than 80% | 26.9 | strongly protects the animals | 44 |
